Data on 15 compounds can be found in patent US20250129070A1, “BIFUNCTIONAL ANDROGEN RECEPTOR COMPOUNDS” (priority 2023, published 2025).

The subject of one assay is AR / CBP ternary complex. As to the kind of experiment: Ternary complex formation assay (sandwich ELISA, AR capture / CBP detection) in VCaP cell lysates. As to conditions: 1.5 hours treatment, sandwich ELISA (AR capture, CBP or p300 detection). Format: cell-based. The gist of the method:
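Anti-AR (AR 441)-coated plates capture AR from lysates of VCaP cells grown ≥3 days at 50K/well in 5% charcoal-stripped FBS, dosed with bifunctional for 1.5 h and lysed 30 min at 4 °C. Co-captured CBP/p300 is probed with rabbit mAb and HRP anti-rabbit, then QuantaRed fluorescence (570/585) is read at 0, 5 and 15 min.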

The next assay has as its system VCaP cells. In words: VCaP growth inhibition assay. The conditions noted are these: 30 pM R1881, 9 days, CTG. It is filed as cell-based. The gist of the method:
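Growth read by CTG luminescence after 9-day exposure to compound (final 100 nM–10 fM, 1:5 steps) plus 30 pM R1881, in phenol red-free DMEM with 5% CSS. Cells pre-incubated 72 h before dosing; IC50 by nonlinear 4-parameter regression.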

Consider `CC(=O)N1CCc2c(c(N3CCCc4cc(C#N)ccc43)nn2C2CCN(CC3CCN(c4ncc(C(=O)NC5C(C)(C)C(Oc6ccc(C#N)c(Cl)c6)C5(C)C)cn4)CC3)CC2)C1` (stereo not drawn) [Compound 155, 2-[4-[[4-[5-acetyl-3-(6-cyano-3,4-dihydro-2H-quinolin-1-yl)-6,7-dihydro-4H-pyrazolo[4,3-c]pyridin-1-yl]-1-piperidyl]methyl]-1-piperidyl]-N-[3-(3-chloro-4-cyano-phenoxy)-2,2,4,4-tetramethyl-cyclobutyl]pyrimidine-5-carboxamide], for which the EC50 with AR / CBP ternary complex was less than 1 nM. Also, the IC50 with VCaP cells lay within 0.1 to 1 nM.
In the same order, the values of `C[C@@H]1CC(=O)Nc2cccc(-c3ccc4c(c3)c(-c3cnn(C)c3)nn4CCCN(C)c3ncc(C(=O)NC4C(C)(C)C(Oc5ccc(C#N)c(Cl)c5)C4(C)C)cn3)c2N1` (stereo partly drawn) [Compound 50, N-[3-(3-chloro-4-cyano-phenoxy)-2,2,4,4-tetramethyl-cyclobutyl]-2-[methyl-[3-[5-[(4R)-4-methyl-2-oxo-1,3,4,5-tetrahydro-1,5-benzodiazepin-6-yl]-3-(1-methylpyrazol-4-yl)indazol-1-yl]propyl]amino]pyrimidine-5-carboxamide] are less than 1 nM and 0.1 to 1 nM.
The corresponding values for `CC(=O)N1CCc2c(c(N3CCCc4cc(-c5cnn(C)c5)c(C(F)F)cc43)nn2C2CCN(C3CN(c4ncc(C(=O)NC5C(C)(C)C(Oc6ccc(C#N)c(Cl)c6)C5(C)C)cn4)C3)CC2)C1` (stereo not drawn) [Compound 333, 2-[3-[4-[5-acetyl-3-[7-(difluoromethyl)-6-(1-methylpyrazol-4-yl)-3,4-dihydro-2H-quinolin-1-yl]-6,7-dihydro-4H-pyrazolo[4,3-c]pyridin-1-yl]-1-piperidyl]azetidin-1-yl]-N-[3-(3-chloro-4-cyano-phenoxy)-2,2,4,4-tetramethyl-cyclobutyl]pyrimidine-5-carboxamide] are greater than 100 nM and no more than 0.1 nM.
In the same order, the values of `CC(=O)N1CCc2c(c(-c3cccc4cc(-c5ccc(C(=O)NCCC6CCN(c7ncc(C(=O)NC8C(C)(C)C(Oc9ccc(C#N)c(Cl)c9)C8(C)C)cn7)CC6)nc5)ncc34)nn2C2CCOCC2)C1` (stereo not drawn) [Compound 179, 2-[4-[2-[[5-[8-(5-acetyl-1-tetrahydropyran-4-yl-6,7-dihydro-4H-pyrazolo[4,3-c]pyridin-3-yl)-3-isoquinolyl]pyridine-2-carbonyl]amino]ethyl]-1-piperidyl]-N-[3-(3-chloro-4-cyano-phenoxy)-2,2,4,4-tetramethyl-cyclobutyl]pyrimidine-5-carboxamide] are less than 1 nM and 0.1 to 1 nM.
In the case of `CC(=O)N1CCc2c(c(N3CCCc4cc(-c5cnn(C)c5)c(C(F)F)cc43)nn2C2CC3(C2)CC2(CCN(c4ncc(C(=O)NC5C(C)(C)C(Oc6ccc(C#N)c(Cl)c6)C5(C)C)cn4)CC2)C3)C1` (stereo not drawn) [Compound 287, 2-[2-[5-acetyl-3-[7-(difluoromethyl)-6-(1-methylpyrazol-4-yl)-3,4-dihydro-2H-quinolin-1-yl]-6,7-dihydro-4H-pyrazolo[4,3-c]pyridin-1-yl]-9-azadispiro[3.1.5^6.1^4]dodecan-9-yl]-N-[3-(3-chloro-4-cyano-phenoxy)-2,2,4,4-tetramethyl-cyclobutyl]pyrimidine-5-carboxamide], the EC50 in the assay on AR / CBP ternary complex fell in the range of 1 to 10 nM. In the assay with VCaP cells, this compound registered an IC50 of 1 to 100 nM.
In the same order, the values of `COc1cc(OC2C(C)(C)C(NC(=O)c3ccc(N4CCN(C5CN(c6ccc(-c7cc8cccc(-c9nn(C%10CCOCC%10)c%10c9CN(C(C)=O)CC%10)c8cn7)cn6)C5)CC4)cc3)C2(C)C)ccc1C#N` (stereo not drawn) [Compound 322, 4-[4-[1-[5-[8-(5-acetyl-1-tetrahydropyran-4-yl-6,7-dihydro-4H-pyrazolo[4,3-c]pyridin-3-yl)-3-isoquinolyl]-2-pyridyl]azetidin-3-yl]piperazin-1-yl]-N-[3-(4-cyano-3-methoxy-phenoxy)-2,2,4,4-tetramethyl-cyclobutyl]benzamide] are less than 1 nM and no more than 0.1 nM.
In the assay on AR / CBP ternary complex, `CC(=O)N1CCc2c(c(Nc3ccc(-c4cnn(C)c4)cc3F)nn2C2CN(CCC3CCN(c4ncc(C(=O)NC5C(C)(C)C(Oc6ccc(C#N)c(Cl)c6)C5(C)C)cn4)CC3)C2)C1` (stereo not drawn) [Compound 3, 2-[4-[2-[3-[5-acetyl-3-[2-fluoro-4-(1-methylpyrazol-4-yl)anilino]-6,7-dihydro-4H-pyrazolo[4,3-c]pyridin-1-yl]azetidin-1-yl]ethyl]-1-piperidyl]-N-[3-(3-chloro-4-cyano-phenoxy)-2,2,4,4-tetramethyl-cyclobutyl]pyrimidine-5-carboxamide] showed an EC50 greater than 100 nM. Moreover, the IC50 with VCaP cells is greater than 100 nM.
With `CC(=O)N1CCc2c(c(N3CCCc4cc(-c5cnn(C)c5)c(C(F)F)cc43)nn2C2CCC(OC3CN(c4ncc(C(=O)NC5C(C)(C)C(Oc6ccc(C#N)c(Cl)c6)C5(C)C)cn4)C3)CC2)C1` (stereo not drawn) [Compound 341], the EC50 in the assay with AR / CBP ternary complex is less than 1 nM. Moreover, the half-maximal inhibitory concentration (IC50) in the assay with VCaP cells was in the range of 0.1 to 1 nM.
For the compound `CC(=O)N1CCc2c(c(N3CCCc4cc(-c5cnn(C)c5)c(C(F)F)cc43)nn2C2CC3(C2)CN(C(=O)C2CC4(C2)CN(c2ncc(C(=O)NC5C(C)(C)C(Oc6ccc(C#N)c(Cl)c6)C5(C)C)cn2)C4)C3)C1` (stereo not drawn) [Compound 217, 2-[6-[6-[5-acetyl-3-[7-(difluoromethyl)-6-(1-methylpyrazol-4-yl)-3,4-dihydro-2H-quinolin-1-yl]-6,7-dihydro-4H-pyrazolo[4,3-c]pyridin-1-yl]-2-azaspiro[3.3]heptane-2-carbonyl]-2-azaspiro[3.3]heptan-2-yl]-N-[3-(3-chloro-4-cyano-phenoxy)-2,2,4,4-tetramethyl-cyclobutyl]pyrimidine-5-carboxamide], the EC50 in the assay with AR / CBP ternary complex was less than 1 nM. Besides, the IC50 in the assay on VCaP cells is 0.1 to 1 nM.
The corresponding values for `COc1cc(OC2C(C)(C)C(NC(=O)c3ccc(N4CCC(OC5CCC(n6nc(N7CCCc8cc(-c9cnn(C)c9)c(C(F)F)cc87)c7c6CCN(C(C)=O)C7)CC5)CC4)cc3)C2(C)C)ccc1C#N` (stereo not drawn) [Compound 308, 4-[4-[4-[5-acetyl-3-[7-(difluoromethyl)-6-(1-methylpyrazol-4-yl)-3,4-dihydro-2H-quinolin-1-yl]-6,7-dihydro-4H-pyrazolo[4,3-c]pyridin-1-yl]cyclohexoxy]-1-piperidyl]-N-[3-(4-cyano-3-methoxy-phenoxy)-2,2,4,4-tetramethyl-cyclobutyl]benzamide] are less than 1 nM and no more than 0.1 nM.
The corresponding values for `COc1cc(OC2C(C)(C)C(NC(=O)c3ccc(N4CCC(CCc5ccc(-c6cc7cccc(-c8nn(C9CCOCC9)c9c8CN(C(C)=O)CC9)c7cn6)cc5)CC4)cc3)C2(C)C)ccc1C#N` (stereo not drawn) [Compound 254, 4-[4-[2-[4-[8-(5-acetyl-1-tetrahydropyran-4-yl-6,7-dihydro-4H-pyrazolo[4,3-c]pyridin-3-yl)-3-isoquinolyl]phenyl]ethyl]-1-piperidyl]-N-[3-(4-cyano-3-methoxy-phenoxy)-2,2,4,4-tetramethyl-cyclobutyl]benzamide] are less than 1 nM and 0.1 to 1 nM.
In the same order, the values of `CC(=O)N1CCc2c(c(Nc3ccc(-c4cnn(C)c4)cc3F)nn2C2CCN(CCN3CCN(c4ncc(C(=O)NC5C(C)(C)C(Oc6ccc(C#N)c(Cl)c6)C5(C)C)cn4)CC3)CC2)C1` (stereo not drawn) [Compound 167, 2-[4-[2-[4-[5-acetyl-3-[2-fluoro-4-(1-methylpyrazol-4-yl)anilino]-6,7-dihydro-4H-pyrazolo[4,3-c]pyridin-1-yl]-1-piperidyl]ethyl]piperazin-1-yl]-N-[3-(3-chloro-4-cyano-phenoxy)-2,2,4,4-tetramethyl-cyclobutyl]pyrimidine-5-carboxamide] are less than 1 nM and 0.1 to 1 nM.
In the assay on AR / CBP ternary complex, `CC(=O)N1CCc2c(c(-c3cccc4cc(-c5cnn(CCC6CC7(C6)CN(c6ncc(C(=O)NC8C(C)(C)C(Oc9ccc(C#N)c(Cl)c9)C8(C)C)cn6)C7)c5)ncc34)nn2C)C1` (stereo not drawn) [Compound 226, 2-[6-[2-[4-[8-(5-acetyl-1-methyl-6,7-dihydro-4H-pyrazolo[4,3-c]pyridin-3-yl)-3-isoquinolyl]pyrazol-1-yl]ethyl]-2-azaspiro[3.3]heptan-2-yl]-N-[3-(3-chloro-4-cyano-phenoxy)-2,2,4,4-tetramethyl-cyclobutyl]pyrimidine-5-carboxamide] displayed an EC50 of less than 1 nM. The IC50 with VCaP cells is no more than 0.1 nM.
Consider `COc1cc(OC2C(C)(C)C(NC(=O)c3ccc(N4CCN(C5CN(c6ccc(-c7cc8c(cn7)N(c7nn(C9CCOCC9)c9c7CN(C(C)=O)CC9)CCC8)cn6)C5)CC4)cc3)C2(C)C)ccc1C#N` (stereo not drawn) [Compound 324, 4-[4-[1-[5-[1-(5-acetyl-1-tetrahydropyran-4-yl-6,7-dihydro-4H-pyrazolo[4,3-c]pyridin-3-yl)-3,4-dihydro-2H-1,7-naphthyridin-6-yl]-2-pyridyl]azetidin-3-yl]piperazin-1-yl]-N-[3-(4-cyano-3-methoxy-phenoxy)-2,2,4,4-tetramethyl-cyclobutyl]benzamide], for which, in the assay on AR / CBP ternary complex, the EC50 was less than 1 nM. For the same compound, the IC50 in the assay with VCaP cells is no more than 0.1 nM.
As for `CC(=O)N1CCc2c(c(N3CCCc4cc(C#N)c(C(F)F)cc43)nn2C2CCN(CC3C(C)CN(c4ncc(C(=O)NC5C(C)(C)C(Oc6ccc(C#N)c(Cl)c6)C5(C)C)cn4)CC3C)CC2)C1` (stereo not drawn) [Compound 458, 2-[4-[[4-[5-acetyl-3-[6-cyano-7-(difluoromethyl)-3,4-dihydro-2H-quinolin-1-yl]-6,7-dihydro-4H-pyrazolo[4,3-c]pyridin-1-yl]-1-piperidyl]methyl]-3,5-dimethyl-1-piperidyl]-N-[3-(3-chloro-4-cyano-phenoxy)-2,2,4,4-tetramethyl-cyclobutyl]pyrimidine-5-carboxamide], in the assay on AR / CBP ternary complex, the EC50 was less than 1 nM. The compound further came in with an IC50 in the assay with VCaP cells of 0.1 to 1 nM.
